{"source": "paper PMC12382740", "about": "“In Vitro and In Vivo Characterization of Novel Cathelicidin-Based Peptides with Antimicrobial Activity Against Pseudomonas aeruginosa” (Antibiotics, 2025)", "tested_on": "human erythrocytes", "assay": "Hemolysis assay", "type": "cell-based", "conditions": "for Hemolysis IC50: human erythrocytes, 4 h at 37 °C, value in brackets; for IC50: red cells of human, 4 h", "method": "Commercially available human blood (IWB1K2E10ML, Innovative Research Inc., Novi, MI, USA) was used to produce a 50% haematocrit solution by mixing at 1:1 with PBS 1× (P5493, 1 L, Sigma, St. Louis, MO, USA). Three consecutive PBS 1× washes plus centrifugation at 2600 rpm for 10 min steps were performed. Finally, a 2% erythrocyte solution was prepared in PBS 1× and chilled on ice until used. Polypropylene plates were filled with 50 µL PBS 1× per well for the samples and 50 µL 2% Triton X-100 (TX-100, 9002-93-1, 100 mL, Sigma, St. Louis, MO, USA) for the hemolysis controls. A solution at 4× final concentration of the assay of each peptide was prepared in PBS and 50 µL were added to the first column of each plate, followed by serial dilutions in the microplate. Then, 50 µL of the 2% erythrocyte solution was added to each plate. […] controls consisted in a 1:1 mix of PBS 1× and erythrocytes at 2%. Plates were incubated at 37 °C for 4 h and then centrifuged at 1500 rpm for 5 min. Eighty µL were extracted from the supernatant of each well carefully and transferred to a polystyrene flat bottom plate for reading and read at 450 nm in an Epoch microplate spectrophotometer (Epoch™, BioTek, Winooski, VT, USA).\nThe therapeutic index is a widely accepted parameter to represent the specificity of antimicrobial peptides for prokaryotic versus eukaryotic cells. It is calculated by the ratio of HC50 (hemolytic activity) and MIC (antimicrobial activity); thus, larger values of therapeutic index indicate greater specificity for prokaryotic cells.", "note": "Square brackets hold non-standard residues; d marks the D form. Peptide text beside a SMILES is read from it.", "data": [{"compound": "CC[C@@H](C)[C@@H](NC(=O)[C@@H](CCCCN)NC(=O)[C@@H](CCCCN)NC(=O)[C@@H](CC(C)C)NC(=O)[C@@H](CCCCN)NC(=O)[C@@H](CCC(=O)O)NC(=O)[C@@H](CCCCN)NC(=O)[C@H](NC(=O)[C@@H](CCCCN)NC(=O)[C@@H](CC(N)=O)NC(=O)[C@@H](CCCNC(=N)N)NC(=O)[C@@H](Cc1ccccc1)NC(=O)[C@@H](CCCCN)NC(=O)[C@@H](CCCNC(=N)N)NC(=O)[C@@H](CC(C)C)NC(=O)[C@@H](CCCNC(=N)N)NC(=O)[C@@H](CCCCN)NC(=O)[C@@H](CCCNC(=N)N)NC(=O)[C@@H](CC(C)C)NC(=O)CN)[C@H](C)CC)C(=O)NCC(=O)N[C@H](CCC(N)=O)C(=O)N[C@H](CCCCN)C(=O)N[C@@H](C(=O)N[C@H](CCC(N)=O)C(=O)NCC(=O)N[C@H](CC(C)C)C(=O)N[C@H](CC(C)C)C(=O)N1CCC[C@@H]1C(=O)N[C@H](CCCCN)C(=O)N[C@H](CC(C)C)C(=O)O)[C@H](C)CC", "note": "[D-CAP-18_31, Glrkrlrkfrnkikeklkkigqkiqgllpkl] (H-G[dL][dR][dK][dR][dL][dR][dK][dF][dR][dN][dK][dI][dK][dE][dK][dL][dK][dK][dI]G[dQ][dK][dI][dQ]G[dL][dL][dP][dK][dL]-OH)", "values": [{"measurement": "Hemolysis IC50", "value": 404.48, "unit": "µg/mL"}, {"measurement": "IC50", "value": 108, "unit": "µM"}]}, {"compound": "H-GLRKRLRKFRNKIKEKLKKIGQKIQGLLPKL-OH [CAP-18_31]", "values": [{"measurement": "Hemolysis IC50", "value": 690.97, "unit": "µg/mL"}, {"measurement": "IC50", "value": 185, "unit": "µM"}]}]}
